From patent EP4644384A1 (Shanghai Lichun Biotech Co., Ltd., priority 2023, dated 2024)

What was measured:
CYP11A1 [1] = molecular target: T1, CYP11A1 (Homo sapiens, UniProt P05108); assay: Pregnenolone synthesis inhibition in NCI-H295R cells (pregnenolone ELISA of culture supernatant); format: cell-based; conditions: 24 hours incubation, pregnenolone in culture supernatant by ELISA
T1 construct: host or cells: NCI-H295R human adrenocortical cancer cells
T1 sequence (P05108 40-521): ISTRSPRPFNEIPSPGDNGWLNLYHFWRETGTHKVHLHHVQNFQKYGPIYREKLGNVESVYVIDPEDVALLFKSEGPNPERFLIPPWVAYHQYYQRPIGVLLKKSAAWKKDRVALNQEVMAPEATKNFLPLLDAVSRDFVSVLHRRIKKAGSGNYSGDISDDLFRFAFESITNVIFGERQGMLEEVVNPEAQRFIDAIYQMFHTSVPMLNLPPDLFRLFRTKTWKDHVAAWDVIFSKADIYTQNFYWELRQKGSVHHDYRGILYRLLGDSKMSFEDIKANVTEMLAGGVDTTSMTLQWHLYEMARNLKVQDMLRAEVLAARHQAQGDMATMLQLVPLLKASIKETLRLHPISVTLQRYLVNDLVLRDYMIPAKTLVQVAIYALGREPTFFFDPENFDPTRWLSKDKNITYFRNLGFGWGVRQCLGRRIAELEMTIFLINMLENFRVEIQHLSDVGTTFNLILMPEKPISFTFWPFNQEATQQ
Text: Conversion of cholesterol into pregnenolone is a first rate-limiting step in the synthesis of all steroid hormones in vertebrates. This conversion reaction involves a two-step continuous monooxygenation reaction catalyzed by the unique cytochrome P450scc (CYP11A) to produce C22-hydroxycholesterol and C20,C22-dihydroxycholesterol in order, followed by CYP11A1-catalyzed breakage of a C20-C22 carbon-carbon single bond in C20,C22-dihydroxycholesterol to produce one molecule of pregnenolone and one molecule of 4-methylvaleraldehyde. Therefore, the inhibitory effect of a compound on CYP11A1 was identified by detecting the ability of the compound to inhibit pregnenolone synthesis.
The ability of different compounds to inhibit pregnenolone biosynthesis was determined by detecting the concentration of pregnenolone (Abnova pregnenolone ELISA kit, KA1912) using enzyme-linked immunosorbent assay (ELISA), so as to detect the ability of the compounds to inhibit CYP11A1. […] In order to determine the half-maximal inhibitory concentrations (IC50) of CYP11A1 inhibition by different compounds, the compounds were added during NCI-H295R cell culture, and after incubation, the concentration of pregnenolone in the culture supernatant was determined.
95 µl of NCI-H295R cells were taken and cultured overnight with a specialized cell culture medium (Procell, CM-0399) in a 96-well culture plate in a cell incubator at 37°C and 5% CO2. 5 µl/well of a DMSO (Sigma, D8418) solution of the compounds to be tested at different concentrations was then added, followed by continued incubation for 24 hours. The final concentrations of the compounds to be tested were 1000 nM, 333.33 nM, 111.11 nM, 37.04 nM, 12.35 nM, 4.12 nM, 1.37 nM, 0.46 nM, and 0 nM. After the incubation was complete, the cells were centrifuged, 80 µl/well of the cell culture supernatant was obtained and 1 : 8 diluted with the cell culture medium, and the concentration of pregnenolone therein was then determined by ELISA method. During ELISA detection, a pregnenolone standard was used to generate a standard curve. The experiment was carried out with replicate wells. The ELISA well plate had been coated with an anti-pregnenolone rabbit polyclonal antibody. In ELISA plate strips, 50 µl/well of the diluted culture supernatant or standard solution or reference substance was added, followed by 100 µl of a pregnenolone-HRP complex solution, and the plate was incubated for 1 hour at room temperature on a plate shaker (QILINBEIER, QB-9002) at 200 rpm. Then, the plate was washed three times with a cleaning solution, with 300 µl each time, and patted dry on absorbent paper. 150 µl of a TMB substrate was added. The plate was incubated on the plate shaker for 10-15 minutes at room temperature, and 50 µl of a stop solution was then added. The absorbance was measured at 450 nm by a microplate reader (PerkinElmer, 2105). The IC50 value was calculated by using GraphPad Prism software. [formula]

CYP11A1 [2] = molecular target: T1, CYP11A1; assay: Testosterone synthesis inhibition in NCI-H295R cells (testosterone ELISA of culture supernatant); format: cell-based; conditions: 24 hours incubation, testosterone in culture supernatant by ELISA
Protocol: The ability of different compounds to inhibit testosterone biosynthesis was determined by detecting the concentration of testosterone (Abnova testosterone ELISA kit, KA6502) using enzyme-linked immunosorbent assay (ELISA), so as to detect the ability of the compounds to inhibit CYP11A1. In the experiment, similarly, the human adrenocortical cancer cell line NCI-H295R (Procell, CL-0399) was also used as an enzyme source. The compounds were added during NCI-H295R cell culture. After incubation, the concentration of testosterone in the culture supernatant was determined.
95 µl of NCI-H295R cells were taken and cultured overnight with a specialized cell culture medium (Procell, CM-0399) in a 96-well culture plate in a cell incubator at 37°C and 5% CO2. 5 µl/well of a DMSO (Sigma, D8418) solution of the compounds to be tested at different concentrations was then added, followed by continued incubation for 24 hours. The final concentrations of the compounds to be tested were 1000 nM, 333.33 nM, 111.11 nM, 37.04 nM, 12.35 nM, 4.12 nM, 1.37 nM, 0.46 nM, and 0 nM. After the incubation was complete, the cells were centrifuged, 80 µl/well of the cell culture supernatant was obtained, and the concentration of testosterone therein was determined by ELISA method. During ELISA detection, a testosterone standard was used to generate a standard curve. The experiment was carried out with replicate wells. The ELISA well plate had been coated with an anti-testosterone monoclonal antibody. In ELISA plate strips, 25 µl/well of the culture supernatant or standard solution or reference substance was added, followed by 200 µl of a testosterone-HRP complex solution, and the plate was incubated for 1 hour at room temperature on a plate shaker (QILINBEIER, QB-9002) at 200 rpm. Then, the plate was washed three times with a cleaning solution, with 300 µl each time, and patted dry on absorbent paper. 200 µl of a TMB substrate was added. The plate was incubated on the plate shaker for 15 minutes at room temperature, and 100 µl of a stop solution was then added. The absorbance was measured at 450 nm by a microplate reader (PerkinElmer, 2105). The IC50 value was calculated by using GraphPad Prism software. [formula]

[3] = Pharmacokinetic evaluation in ICR mice after intragastric administration (plasma, LC/MS/MS); format: in vivo; conditions: mouse, po, male ICR mice, i.g., 20 mg/kg; for AUC(0-t): read-out: Area under the curve AUC0-t; for half-life: read-out: Half-life T1/2 (converted); for Cmax: read-out: Plasma concentration Cmax
Protocol: Taking ICR mice as test animals, the drug concentration in plasma of ICR mice was determined by LC/MS/MS method at different times after intragastric administration (i.g.) with the compound of the present disclosure. The pharmacokinetic behavior of the compound of the present disclosure in ICR mice was studied and the pharmacokinetic characteristics thereof were evaluated.
27 male ICR mice were taken and randomly divided into three groups. The mice were provided by JOINN Laboratories (Suzhou) Co., Ltd. Before administration, the mice were fasted overnight for at least 12 hours. During the fasting and experiment, the drinking water was normal saline.
A certain amount of the compound to be tested was taken, and the test sample prepared with a final concentration of 2 mg/mL was taken for oral administration. The preparation solvent was 0.5% Tween 80 in a 0.5% methylcellulose aqueous solution. After the preparation was complete, a 1N hydrochloric acid aqueous solution was added for adjustment to a clear solution (pH 4-5).
The dosage was 20.0 mg/kg and the dosage volume was 10.0 ml/kg.
At 15 min, 30 min, 1 h, 2 h, 4 h, 6 h, 8 h, 10 h, and 24 h after administration, at least 0.2 mL was taken from the vein (3 animals at each time point) and placed in an EDTA-K2 anticoagulation test tube. The blood sample was collected and then placed in a labeled ice-water bath centrifuge tube, and the plasma was quickly separated by centrifugation. The centrifugation conditions were as follows: 4000 revolutions/minute, 10 minutes, and 4°C. The plasma was stored at -40°C or lower for later testing. Feed supply was resumed 4 hours after administration.
Determination of the content of the compound to be detected in the plasma of ICR mice: After the plasma sample was thawed at room temperature, 50 µL was taken and added to 300 µL of (200 ng/mL, acetonitrile, terfenadine) internal standard, the mixture was vortexed and uniformly mixed for 1 min and then centrifuged at 4°C at 15400 g for 10 min. The supernatant was taken and injected for LC/MS/MS analysis.
The main pharmacokinetic parameters, such as AUC, Cmax and t1/2, were calculated by non-compartmental analysis (NCA) method using WinNonlin software.

For CCn1c(CN2Cc3ccccc3C2)ccc(OCC2CCN(S(C)(=O)=O)CC2)c1=O [Compound 25, 1-ethyl-6-(isoindolin-2-ylmethyl)-3-((1-(methylsulfonyl)piperidine-4-yl)methoxy)pyridin-2(1H)-one], which IC50 (CYP11A1 [1]) is on record?
Its IC50 is 1.56 nM.

And the IC50 (CYP11A1 [2])?
The IC50 was 3.78 nM.

With CCn1c(CN2Cc3ccccc3C2)ccc(OCC2CCN(S(=O)(=O)O)CC2)c1=O [Compound 31, 4-(((1-ethyl-6-(isoindolin-2-ylmethyl)-2-oxo-1,2-dihydropyridin-3-yl)oxy)methyl)piperidine-1-sulfonic acid] as the compound, how does the IC50 (CYP11A1 [2]) read?
Its IC50 is greater than 1000 nM.

Which results are given for CCn1c(CN2Cc3ccccc3C2)ccc(OCC2CCN(S(=O)(=O)NS(N)(=O)=O)CC2)c1=O [Compound 30, 4-(((1-ethyl-6-(isoindolin-2-ylmethyl)-2-oxo-1,2-dihydropyridin-3-yl)oxy)methyl)-N-sulfamoylpiperidine-1-sulfonamide]?
IC50 (CYP11A1 [1]): 0.648 nM; IC50 (CYP11A1 [2]): 4.04 nM

What does the source list for Cn1c(CN2Cc3ccccc3C2)ccc(OCC2CCN(S(C)(=O)=O)CC2)c1=O [Compound 1, 6-(isoindolin-2-ylmethyl)-1-methyl-3-((1-(methylsulfonyl)piperidine-4-yl)methoxy)pyridin-2(1H)-one]?
IC50 (CYP11A1 [1]): 4.15 nM; IC50 (CYP11A1 [2]): 17.7 nM; AUC(0-t) [3]: 9950 ng·h/mL; half-life [3]: 42.5 min; Cmax [3]: 9720 ng/mL

Which results are given for [2H]C([2H])([2H])n1c(CN2Cc3ccccc3C2)ccc(OCC2CCN(S(=O)(=O)C(F)(F)F)CC2)c1=O [Compound 16, 6-(isoindolin-2-ylmethyl)-1-(methyl-d3)-3-((1-((trifluoromethyl)sulfonyl)piperidine-4-yl)methoxy)pyridin-2(1H)-one]?
IC50 (CYP11A1 [1]): 1.03 nM; IC50 (CYP11A1 [2]): 40.2 nM

With CCn1c(CN2Cc3ccccc3C2)ccc(OCC2CCN(S(=O)(=O)C3CC3)CC2)c1=O [Compound 26, 3-((1-(cyclopropylsulfonyl)piperidine-4-yl)methoxy)-1-ethyl-6-(isoindolin-2-ylmethyl)pyridin-2(1H)-one] as the compound, how does the IC50 (CYP11A1 [1]) read?
Its IC50 is 0.7 nM.

What about the IC50 (CYP11A1 [2]) of the same compound?
The IC50 was 2.45 nM.

Which IC50 (CYP11A1 [1]) does the source give for CCn1c(CN2Cc3ccccc3C2)ccc(OCC2CCN(S(N)(=O)=O)CC2)c1=O [Compound 28, 4-(((1-ethyl-6-(isoindolin-2-ylmethyl)-2-oxo-1,2-dihydropyridin-3-yl)oxy)methyl)piperidine-1-sulfonamide] here?
Its IC50 is 1.18 nM.

And the IC50 (CYP11A1 [2])?
Its IC50 is 7.02 nM.

What about the AUC(0-t) [3] of the same compound?
The AUC(0-t) was 13600 ng·h/mL.

What about the half-life [3] of the same compound?
The half-life was 73.2 min.

What about the Cmax [3] of the same compound?
The Cmax was 5440 ng/mL.

Which AUC(0-t) [3] does the source give for CS(=O)(=O)N1CCC(COc2coc(CN3Cc4ccccc4C3)cc2=O)CC1 [Comparative Example 1, reference compound] here?
Its AUC(0-t) is 4330 ng·h/mL.

What about the half-life [3] of the same compound?
Its half-life is 112 min.

What about the Cmax [3] of the same compound?
The Cmax was 7950 ng/mL.
